The values below come from patent US6376512B1, “Therapeutic uses of quinoline derivatives” (Aventis Pharma Deutschland GmbH, priority 1997, dated 2002).

For data set [1], the target named is T1, LTD4 receptor (Homo sapiens, UniProt Q9Y271).
T1 construct: endogenous in cells
T1 sequence (Q9Y271 1-337): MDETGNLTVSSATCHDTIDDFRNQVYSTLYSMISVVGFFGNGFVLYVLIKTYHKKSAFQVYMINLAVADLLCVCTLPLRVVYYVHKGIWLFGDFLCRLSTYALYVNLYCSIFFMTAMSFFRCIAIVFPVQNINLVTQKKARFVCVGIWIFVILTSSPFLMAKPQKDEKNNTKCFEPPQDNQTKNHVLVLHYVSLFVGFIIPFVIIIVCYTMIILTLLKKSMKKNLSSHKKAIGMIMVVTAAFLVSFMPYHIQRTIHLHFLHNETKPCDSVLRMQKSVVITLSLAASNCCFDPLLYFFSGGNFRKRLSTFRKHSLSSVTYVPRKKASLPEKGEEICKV
The data set can be described thus: LTD4 receptor binding in THP-1 cells. The note with it: for Kb: THP-1 cells, read-out: LTD4 Binding (Kb for binding of compound to the LTD4 receptor).

For a further data set, the system named is human preadipocytes. In words: Adipocyte differentiation of primary human pre-adipocyte cultures (oil red-O). It counts as cell-based. The note with it: for EC50: Homo sapiens, Adipocyte, human adipocyte differentiation in presence of insulin and dexamethasone. Here is the method:
Evaluation of the capacity to induce differentiation of primary human pre-adipocyte cultures to adipocytes.
The capacity of Compound VI to induce adipocyte differentiation of primary human pre-adipocyte cultures was evaluated and compared directly to Troglitazone®.
Human subcutaneous preadipocytes were isolated from adipose tissue obtained by liposuction surgery. Preadipocytes were inoculated at high density in preadipocyte medium (DME/F-10, 1:1, (v/v) containing 10% fetal calf serum). Cells were kept in preadipocytic medium overnight for attachment. […] The basal medium, which was used as the negative control, contained DME/F-10, biotin (33 μM), pantothenate (17 μM), insulin (100 nM), and dexamethasone (1 μM). The culture was maintained for 14 days with the compound treatment during the first five days. At the end of the culture, cells were fixed in 5% formalin and stained with oil red-O dye. The dye was extracted by isopropanol and quantitated by measuring the optical density at 500 nm.

Data set [2] concerns the target T2, LTD4 receptor (Cavia porcellus, UniProt Q2NNR5).
T2 sequence (Q2NNR5 1-340): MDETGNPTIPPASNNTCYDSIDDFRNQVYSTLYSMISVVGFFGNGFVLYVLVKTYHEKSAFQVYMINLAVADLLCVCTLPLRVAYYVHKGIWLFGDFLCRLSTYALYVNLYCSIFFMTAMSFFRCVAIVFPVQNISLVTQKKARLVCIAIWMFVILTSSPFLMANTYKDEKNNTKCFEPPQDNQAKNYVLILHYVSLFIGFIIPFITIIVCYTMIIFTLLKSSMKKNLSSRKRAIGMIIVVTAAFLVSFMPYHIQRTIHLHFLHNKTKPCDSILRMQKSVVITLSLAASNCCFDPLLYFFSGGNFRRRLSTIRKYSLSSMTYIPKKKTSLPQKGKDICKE
The data set can be described thus: LTD4 binding, guinea pig receptor. To be noted: read-out: Kd, antagonist of the guinea pig LTD4 receptor.

For the next data set, the system named is db/db mice. In words: Oral (in-feed) efficacy in db/db mice, genetic model of type II diabetes. It counts as in vivo, mouse. Here is the method:
An in-feed study in this genetic model of type II diabetes was performed. […] The compound of formula VI and Troglitazone® were studied in a genetic model of diabetes (db/db mice). A total of 70 female db/db mice (C57Bl/Ks db+/+; Jackson Labs, Maine), 3 months of age, received either meal chow only (rodent chow # 5001), 50 or 150 mg/kg/day of the compound of formula VI and 50 or 150 mg/kg/day of Troglitazone® mixed with the food. Six animals were sacrificed on Day 0 to obtain baseline values, the remaining 64 animals were randomly distributed into 5 groups. On days 0, 8, 12 and 16 whole blood samples were taken via the tail vein and blood glucose was determined (in duplicate) using the One Touch® gluco-meter. On Day 16, animals were anesthetized using pentobarbital, blood was drawn into EDTA tubes and the following organs were removed: heart, liver, brain, white and brown adipose tissue and the tibia. Plasma was prepared and kept frozen until samples were analyzed for glucose, free fatty acids, insulin and triglycerides. [table] Plasma was analyzed for glucose, triglycerides, free fatty acids and insulin. The latter two methods were slightly modified to use smaller amounts of plasma. Glucose Analysis. Plasma glucose was measured with a Sigma Chemicals Diagnostic kit (#315-500). Triglyceride Analysis. Plasma triglycerides was measured with a Sigma Chemicals Diagnostic kit (#339-500P). Insulin Analysis. Plasma insulin was measured using a radioimmunoassay (RIA) kit from Linco Research Inc. (#RI-13K). This kit was modified slightly using 10 μl of plasma. This kit utilizes an antibody made specifically against rat insulin. The cross-reactivity of this antibody with mouse insulin is 100 percent. Free Fatty Acid Analysis. Plasma free fatty acids were measured using a kit obtained from Wako Chemicals Inc. (NEFA-C; #994-75409). This kit utilizes an in vitro enzymatic colorimetric method for the quantitation of non-esterified fatty acids in serum or plasma. This method relies upon the acylation of coenzyme A by the fatty acids in the presence of added acyl-CoA synthetase. This method was modified slightly to utilize 5 μl of plasma and was performed in a 96-well format (M. Johnson & J. Peters, J. Animal Science 71:753-756, 1993).

A further data set addresses T3, PPAR-γ (Homo sapiens, UniProt P37231).
T3 sequence (P37231 1-505): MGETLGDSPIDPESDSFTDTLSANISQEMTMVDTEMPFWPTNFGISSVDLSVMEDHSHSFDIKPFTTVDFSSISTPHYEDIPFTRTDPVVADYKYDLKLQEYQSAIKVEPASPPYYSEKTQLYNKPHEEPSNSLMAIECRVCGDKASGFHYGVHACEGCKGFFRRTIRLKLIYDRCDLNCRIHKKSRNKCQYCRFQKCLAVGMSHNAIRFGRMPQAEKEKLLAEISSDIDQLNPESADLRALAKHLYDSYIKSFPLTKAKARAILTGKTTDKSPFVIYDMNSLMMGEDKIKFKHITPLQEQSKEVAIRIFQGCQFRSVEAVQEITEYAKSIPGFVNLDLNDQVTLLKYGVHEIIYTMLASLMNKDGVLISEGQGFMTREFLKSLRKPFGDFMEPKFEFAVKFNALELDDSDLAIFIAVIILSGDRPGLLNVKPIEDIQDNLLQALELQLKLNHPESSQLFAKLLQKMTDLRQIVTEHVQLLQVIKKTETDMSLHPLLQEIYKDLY
In words: PPAR-γ ligand receptor binding. The note with it: initial results.

Molecules are shown by their SMILES. “Also recorded” adds a separate entry of the source. Read-outs that look alike come from different tables or passages of the source.

In general, EC50 refers to the concentration needed to bring the measured effect to its halfway point. For `Cc1c(C)c2c(c(C)c1O)CCC(C)(COc1ccc(CC3SC(=O)NC3=O)cc1)O2` (stereo not shown) [Troglitazone ®, Troglitazone, reference compound], the Kb on LTD4 receptor [1] was greater than 10000 nM. Also, the EC50 in the data set with human preadipocytes (serum free medium) was greater than 3000 nM.
What is called melting point is the temperature of the solid-liquid transition. On to `COc1cc(C(=O)O)ccc1OCc1cccc(OCc2ccc3ccccc3n2)c1` [Example 15, 3-methoxy-4-(3-(2-quinolinylmethyloxy)benzyloxy)benzoic acid], for which the melting point lay within 188 to 190 °C.
Same read-out and setting: for `c1ccc2nc(COc3ccc(COc4ccc(Cc5nnn[nH]5)cc4)cc3)ccc2c1` [Example 12, 5-[4(4-(2-quinolinylmethyloxy)benzyloxy)benzyl]tetrazole] the value was 179 to 181 °C.
The term Kd denotes the equilibrium constant for the complex coming apart. Consider `c1ccc(Cc2nn[nH]n2)c(COc2ccc(OCc3ccc4ccccc4n3)cc2)c1` [Compound VI, 5-[2-(4-(2-quinolinylmethoxy)phenoxymethyl)benzyl]tetrazole], for which, on LTD4 receptor [2], the Kd worked out at 3 nM. Besides, at LTD4 receptor [1], the “binding to the LTD4 receptor (in words)” value is reported as “binds tightly” and the Kb is 38 nM. Besides, at LTD4 receptor [1] (in serum), the Kb is 88 nM. Also, the lowering plasma glucose entry in the data set on db/db mice (db/db mice, 50 or 150 mg/kg/day mixed with the food, Day 16, FIG. 3A) was “effective”. Further, the “lowering plasma free fatty acids” value in the data set with db/db mice (db/db mice, 50 or 150 mg/kg/day mixed with the food, Day 16, FIG. 3B) is reported as “effective”. Besides, the lowering plasma triglycerides entry with db/db mice (db/db mice, 50 or 150 mg/kg/day mixed with the food, Day 16, FIG. 3C) is “effective”. Moreover, in the data set on db/db mice (db/db mice, 50 or 150 mg/kg/day mixed with the food, Day 16, FIG. 3D), the lowering plasma insulin result is reported as “effective”. The “efficacy relative to Troglitazone” value with db/db mice (db/db mice, same doses, listed as compound of formula VI) is on record as “significantly better efficacy; also recorded: more efficacious than Troglitazone®”. The “potency relative to Troglitazone in lowering glucose” value with db/db mice (db/db mouse, in-feed administration, FIG. 4) was “at least three times the potency of Troglitazone®”. Besides, the concentration giving a half-maximal response (EC50) in the data set on human preadipocytes (in serum) was 1000 to 3000 nM. The EC50 in the data set on human preadipocytes (serum free medium) was 100 to 300 nM. Further, in the data set on human preadipocytes (human preadipocytes), the “activity in the differentiation assay” value is on record as “active” and the “potency in the differentiation assay relative to Troglitazone” value is “better potency than Troglitazone®”. In addition, the “potency as PPAR-γ ligand receptor binder relative to Troglitazone” value at PPAR-γ is “more potent PPAR-γ ligand receptor binder than Troglitazone®”.
The molecule `N#Cc1cccc(OCc2cccc(OCc3ccc4ccccc4n3)c2)c1` [Example 7, 3-[3-(2-quinolinylmethyloxy)benzyloxy]benzonitrile] yielded a melting point of 86 to 87 °C.
`N#Cc1ccc(COc2cccc(OCc3ccc4ccccc4n3)c2)cc1` [Example 26, 4-(3-(2quinolinylmethyloxy)phenoxy-methyl)benzonitrile] gave a melting point of 112.5 °C.
For `c1cc(OCc2ccc(-c3nnn[nH]3)cc2)cc(OCc2ccc3ccccc3n2)c1` [Example 27, 5-(4-(3-(2quinolinylmethyloxy)phenoxy-methyl)phenyl)tetrazole], the melting point was 91 °C (dec.).
`O=C(O)c1cccc(COc2cccc(OCc3ccc4ccccc4n3)c2)c1` [Example 20, 3-(3-(2-quinolinylmethyloxy)phenoxymethyl)benzoic acid]: the melting point lay within 149 to 151 °C.
Regarding `c1cc(COc2cccc(-c3nnn[nH]3)c2)cc(OCc2ccc3ccccc3n2)c1` [Example 10, 5-[3-(3-(2-quinolinylmethyloxy)benzyloxy)phenyl]tetrazole], the melting point was 169 to 172 °C.
`COC(=O)c1cccc(COc2cccc(OCc3ccc4ccccc4n3)c2)c1` [Example 19, methyl 3-(3-(2-quinolinylmethyloxy)phenoxymethyl)benzoate] returned a melting point of 93 to 94 °C.
The same measure, in the same setting: for `c1ccc2nc(COc3ccc(COc4ccc(-c5nnn[nH]5)cc4)cc3)ccc2c1` [Example 11, 5-[4-(4-(2-quinolinylmethyloxy)benzyloxy)phenyl]tetrazole] the value was 210 to 213 °C; for `COC(=O)c1ccc(OCc2cccc(OCc3ccc4ccccc4n3)c2)c(OC)c1` [Example 14, methyl 3-methoxy-4-(3-(2quinolinylmethyloxy)benzyloxy)-benzoate], 100 to 101 °C; for `c1cc(COc2ccc(OCc3ccc4ccccc4n3)cc2)cc(OCc2nnn[nH]2)c1` [Example 32, 5-(3-(4-(2-quinolinylmethyloxy)phenoxymethyl)phenoxymethyl)tetrazole], 131 to 132 °C.
